According to PubChem BioAssay (NCI):
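The compound was tested at five concentrations on cells cultured in 96-well plates, with a 48-hour exposure period. Definition used: TGI = concentration required for complete inhibition of growth.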

Columns and labels:
Experiment in all cases: growth of human tumour cells (NCI), 48 h
MDA-N = test system: MDA-N
NCI-H460 lung = test system: NCI-H460 lung
HS 578T breast = test system: HS 578T breast
UACC-257 melanoma = test system: UACC-257 melanoma
OVCAR-4 ovarian = test system: OVCAR-4 ovarian
BT-549 breast = test system: BT-549 breast
HL-60(TB) leukemia = test system: HL-60(TB) leukemia
SNB-19 CNS = test system: SNB-19 CNS
MOLT-4 leukemia = test system: MOLT-4 leukemia
MDA-MB-231 breast = test system: MDA-MB-231 breast
786-0 renal = test system: 786-0 renal
NCI-H23 lung = test system: NCI-H23 lung
U251 CNS = test system: U251 CNS
ACHN renal = test system: ACHN renal
LOX IMVI melanoma = test system: LOX IMVI melanoma
HCT-15 colon = test system: HCT-15 colon
SF-268 CNS = test system: SF-268 CNS
PC-3 prostate = test system: PC-3 prostate
SK-MEL-5 melanoma = test system: SK-MEL-5 melanoma
SK-OV-3 ovarian = test system: SK-OV-3 ovarian
COLO 205 colon = test system: COLO 205 colon
NCI-H226 lung = test system: NCI-H226 lung
DU-145 prostate = test system: DU-145 prostate
HCT-116 colon = test system: HCT-116 colon
SK-MEL-28 melanoma = test system: SK-MEL-28 melanoma
SF-295 CNS = test system: SF-295 CNS
IGROV1 ovarian = test system: IGROV1 ovarian
SF-539 CNS = test system: SF-539 CNS
TK-10 renal = test system: TK-10 renal
A498 renal = test system: A498 renal
SK-MEL-2 melanoma = test system: SK-MEL-2 melanoma
SNB-75 CNS = test system: SNB-75 CNS
HOP-92 NSCLC = test system: HOP-92 NSCLC
CCRF-CEM leukemia = test system: CCRF-CEM leukemia
HOP-62 NSCLC = test system: HOP-62 NSCLC
NCI-H522 lung = test system: NCI-H522 lung
UO-31 renal = test system: UO-31 renal
A549 NSCLC = test system: A549 NSCLC
SW-620 colon = test system: SW-620 colon
CAKI-1 renal = test system: CAKI-1 renal
T-47D breast = test system: T-47D breast
UACC-62 melanoma = test system: UACC-62 melanoma
M14 melanoma = test system: M14 melanoma
KM12 colon = test system: KM12 colon
OVCAR-3 ovarian = test system: OVCAR-3 ovarian
MCF7 breast = test system: MCF7 breast
MDA-MB-435 = test system: MDA-MB-435
OVCAR-8 ovarian = test system: OVCAR-8 ovarian
NCI/ADR-RES ovarian = test system: NCI/ADR-RES ovarian
RPMI-8226 leukemia = test system: RPMI-8226 leukemia
EKVX NSCLC = test system: EKVX NSCLC
MALME-3M melanoma = test system: MALME-3M melanoma
OVCAR-5 ovarian = test system: OVCAR-5 ovarian
SN12C renal = test system: SN12C renal
HT29 colon = test system: HT29 colon
SR leukemia = test system: SR leukemia
K-562 leukemia = test system: K-562 leukemia
RXF 393 renal = test system: RXF 393 renal

What does the source list for `COc1cc(C(C)=O)cc(C(=O)N(C(C)C)C(C)C)c1[Si](C)(C)C`?
TGI (MDA-N): > 100 µM; TGI (NCI-H460 lung): > 100 µM; TGI (HS 578T breast): > 100 µM; TGI (UACC-257 melanoma): > 100 µM; TGI (OVCAR-4 ovarian): > 100 µM; TGI (BT-549 breast): > 100 µM; TGI (HL-60(TB) leukemia): > 100 µM; TGI (SNB-19 CNS): > 100 µM; TGI (MOLT-4 leukemia): > 100 µM; TGI (MDA-MB-231 breast): > 100 µM; TGI (786-0 renal): > 100 µM; TGI (NCI-H23 lung): > 100 µM; TGI (U251 CNS): > 100 µM; TGI (ACHN renal): > 100 µM; TGI (LOX IMVI melanoma): > 100 µM; TGI (HCT-15 colon): > 100 µM; TGI (SF-268 CNS): > 100 µM; TGI (PC-3 prostate): > 100 µM; TGI (SK-MEL-5 melanoma): > 100 µM; TGI (SK-OV-3 ovarian): 99.2 µM; TGI (COLO 205 colon): > 100 µM; TGI (NCI-H226 lung): > 100 µM; TGI (DU-145 prostate): > 100 µM; TGI (HCT-116 colon): > 100 µM; TGI (SK-MEL-28 melanoma): > 100 µM; TGI (SF-295 CNS): > 100 µM; TGI (IGROV1 ovarian): > 100 µM; TGI (SF-539 CNS): > 100 µM; TGI (TK-10 renal): > 100 µM; TGI (A498 renal): > 100 µM; TGI (SK-MEL-2 melanoma): > 100 µM; TGI (SNB-75 CNS): 56.4 µM; TGI (HOP-92 NSCLC): > 100 µM; TGI (CCRF-CEM leukemia): > 100 µM; TGI (HOP-62 NSCLC): > 100 µM; TGI (NCI-H522 lung): > 100 µM; TGI (UO-31 renal): > 100 µM; TGI (A549 NSCLC): > 100 µM; TGI (SW-620 colon): > 100 µM; TGI (CAKI-1 renal): > 100 µM; TGI (T-47D breast): > 100 µM; TGI (UACC-62 melanoma): > 100 µM; TGI (M14 melanoma): > 100 µM; TGI (KM12 colon): > 100 µM; TGI (OVCAR-3 ovarian): > 100 µM; TGI (MCF7 breast): > 100 µM; TGI (MDA-MB-435): > 100 µM; TGI (OVCAR-8 ovarian): > 100 µM

Which TGI (MDA-N) does the source give for `O=C(Oc1ccccc1)N1c2ccccc2[C@@]23O[C@]24CCC[C@H]3C#C/C=C\C#C[C@H]14` here?
Its TGI is 26.9 µM.

And the TGI (NCI-H460 lung)?
Its TGI is 11.4 µM.

What about the TGI (HS 578T breast) of the same compound?
Its TGI is 47.1 µM.

And the TGI (UACC-257 melanoma)?
Its TGI is 28.7 µM.

What about the TGI (OVCAR-4 ovarian) of the same compound?
Its TGI is 23.3 µM.

What about the TGI (BT-549 breast) of the same compound?
Its TGI is 25.5 µM.

What about the TGI (HL-60(TB) leukemia) of the same compound?
The TGI was 26.1 µM.

And the TGI (SNB-19 CNS)?
Its TGI is 29.1 µM.

And the TGI (MOLT-4 leukemia)?
Its TGI is > 100 µM.

And the TGI (NCI/ADR-RES ovarian)?
Its TGI is 33.2 µM.

And the TGI (RPMI-8226 leukemia)?
Its TGI is 32.9 µM.

And the TGI (MDA-MB-231 breast)?
Its TGI is 24.8 µM.

And the TGI (786-0 renal)?
Its TGI is 22.2 µM.

And the TGI (NCI-H23 lung)?
The TGI was 28.7 µM.

What about the TGI (U251 CNS) of the same compound?
Its TGI is 30.3 µM.

And the TGI (LOX IMVI melanoma)?
The TGI was 25.6 µM.

What about the TGI (HCT-15 colon) of the same compound?
Its TGI is 25.9 µM.

What about the TGI (SF-268 CNS) of the same compound?
The TGI was 43.2 µM.

And the TGI (EKVX NSCLC)?
The TGI was 31.8 µM.

And the TGI (MALME-3M melanoma)?
Its TGI is 22.1 µM.

What about the TGI (OVCAR-5 ovarian) of the same compound?
The TGI was 24.1 µM.

And the TGI (PC-3 prostate)?
Its TGI is 23.8 µM.

What about the TGI (SK-OV-3 ovarian) of the same compound?
Its TGI is 17.1 µM.

What about the TGI (COLO 205 colon) of the same compound?
The TGI was 28 µM.

And the TGI (NCI-H226 lung)?
The TGI was 38.1 µM.

What about the TGI (DU-145 prostate) of the same compound?
The TGI was 30.5 µM.

What about the TGI (SN12C renal) of the same compound?
The TGI was 26.6 µM.

And the TGI (HCT-116 colon)?
Its TGI is 24.2 µM.

What about the TGI (SK-MEL-28 melanoma) of the same compound?
The TGI was 27 µM.

What about the TGI (SF-295 CNS) of the same compound?
Its TGI is 30.9 µM.

What about the TGI (IGROV1 ovarian) of the same compound?
Its TGI is 24.9 µM.

What about the TGI (SF-539 CNS) of the same compound?
The TGI was 45.8 µM.

What about the TGI (TK-10 renal) of the same compound?
The TGI was 47.8 µM.

What about the TGI (A498 renal) of the same compound?
The TGI was 27.6 µM.

And the TGI (SK-MEL-2 melanoma)?
The TGI was 25.5 µM.

What about the TGI (SNB-75 CNS) of the same compound?
The TGI was 23.3 µM.

What about the TGI (HOP-92 NSCLC) of the same compound?
The TGI was 27 µM.

What about the TGI (HT29 colon) of the same compound?
The TGI was 23.2 µM.

And the TGI (CCRF-CEM leukemia)?
The TGI was > 100 µM.

What about the TGI (HOP-62 NSCLC) of the same compound?
Its TGI is 25.6 µM.

And the TGI (UO-31 renal)?
The TGI was 26.5 µM.

What about the TGI (A549 NSCLC) of the same compound?
The TGI was 25 µM.

And the TGI (SW-620 colon)?
The TGI was 23.5 µM.

And the TGI (SR leukemia)?
The TGI was 41.1 µM.

What about the TGI (K-562 leukemia) of the same compound?
The TGI was > 100 µM.

What about the TGI (CAKI-1 renal) of the same compound?
Its TGI is 25.7 µM.

What about the TGI (T-47D breast) of the same compound?
The TGI was 22 µM.

And the TGI (RXF 393 renal)?
The TGI was 21.8 µM.

What about the TGI (UACC-62 melanoma) of the same compound?
The TGI was 23.6 µM.

And the TGI (M14 melanoma)?
The TGI was 30.6 µM.

And the TGI (KM12 colon)?
The TGI was 26.4 µM.

And the TGI (OVCAR-3 ovarian)?
Its TGI is 26.1 µM.

What about the TGI (MDA-MB-435) of the same compound?
The TGI was 36.7 µM.

And the TGI (OVCAR-8 ovarian)?
The TGI was 24.8 µM.
